Measurements from US8658668B2, “PI3 kinase/mTOR dual inhibitor” (Eli Lilly and Company, priority 2011, dated 2014).

Experiments:
PI3Kb = PI3Kb (Homo sapiens, UniProt P42338); test: PI3K beta Scintillation Proximity Assay; format: biochemical; settings: 40 μM ATP; n=2; read-out: absolute IC50
Procedure: Use the PI3K beta Scintillation Proximity Assay (PI3K beta SPA) to determine the IC50 value against PI3Kb for a compound. This assay assesses the activity PI3K beta in the presence of compound inhibitors by measuring incorporation of γ-P33-ATP into phosphatidylinositol (4,5)bisphosphate (PIP2). Perform the kinase reactions in 40 μL reaction volumes in 96-well half-area flat bottom white with clear bottom polystyrene plates. Add PI3K beta to start the reaction. Final reaction conditions are 43.75 mM 2,2-bis(hydroxymethyl)-2,2′,2″-nitrilotriethanol (Bis-Tris) pH 7.0, 87.5 mM sodium chloride (NaCl), 1.76 mM polyethylene glycol octylphenyl ether (Triton™ X-100), 40 μM adenosine triphosphate (ATP), 1.0 mM magnesium chloride (MgCl2) and 1 μCi per well γ-P33-adenosine triphosphate (γ-P33-ATP), 6.0 nM PI3K beta human recombinant enzyme, 0.2 mM palmitoyl-oleoyl phosphatidylserine (POPS), 0.04 mM phosphatidylinositol (4,5)bisphosphate (PIP2), 4% DMSO and serial dilutions of compound (diluted 1:3 from 20,000 to 1 nM). […] Centrifuge plates for 30 min at 1000 revolutions per minute (RPM) and count radioactivity with a Wallac Microbeta Trilux normalized for P33. Derive the IC50 value for the compound by using percent inhibition data calculated using the reaction data relative to on-plate controls (active enzyme versus 62.5 millimolar EDTA-inhibited enzyme controls). […]

[1] = test system: PXF 541 human tumor xenograft cells; test: Oncotest tumor clonogenic assay, PXF 541; format: cell-based; settings: colony formation, Pleuramesothelioma PXF 541, invasive pleuramesothelioma, read-out: Absolute IC50
[2] = test system: PRXF PC3M human tumor xenograft cells; test: Oncotest tumor clonogenic assay, PRXF PC3M; format: cell-based; settings: PC-3M, colony formation, Prostate PRXF PC3M, adeno carcinoma, metastatic, pd, read-out: Absolute IC50
[3] = test system: MAXF 1322 human tumor xenograft cells; test: Oncotest tumor clonogenic assay, MAXF 1322; format: cell-based; settings: colony formation, Mammary MAXF 1322, pap. adeno carcinoma, pd, read-out: Absolute IC50
[4] = test system: OVXF 1353 human tumor xenograft cells; test: Oncotest tumor clonogenic assay, OVXF 1353; format: cell-based; settings: colony formation, Ovary OVXF 1353, adeno carcinoma, pd, read-out: Absolute IC50
[5] = test system: CXF 243 human tumor xenograft cells; test: Oncotest tumor clonogenic assay, CXF 243; format: cell-based; settings: colony formation, Colon CXF 243, adeno carcinoma, pd, read-out: Absolute IC50
[6] = test system: SXF 627 human tumor xenograft cells; test: Oncotest tumor clonogenic assay, SXF 627; format: cell-based; settings: colony formation, Sarcoma SXF 627, pleomorphic rhabdomyosarcoma, pd, read-out: Absolute IC50
[7] = test system: GXF 209 human tumor xenograft cells; test: Oncotest tumor clonogenic assay, GXF 209; format: cell-based; settings: colony formation, Gastric GXF 209, signet-ring cell carcinoma, ud, read-out: Absolute IC50
[8] = test system: CXF 1729 human tumor xenograft cells; test: Oncotest tumor clonogenic assay, CXF 1729; format: cell-based; settings: colony formation, Colon CXF 1729, adeno carcinoma, wd, read-out: Absolute IC50
PI3Ka = PI3Ka (Homo sapiens, UniProt P42336); test: PI3Ka Scintillation Proximity Assay; format: biochemical; settings: 10 μM ATP; n=2; read-out: absolute IC50
PI3Ka, sequence (P42336 whole entry): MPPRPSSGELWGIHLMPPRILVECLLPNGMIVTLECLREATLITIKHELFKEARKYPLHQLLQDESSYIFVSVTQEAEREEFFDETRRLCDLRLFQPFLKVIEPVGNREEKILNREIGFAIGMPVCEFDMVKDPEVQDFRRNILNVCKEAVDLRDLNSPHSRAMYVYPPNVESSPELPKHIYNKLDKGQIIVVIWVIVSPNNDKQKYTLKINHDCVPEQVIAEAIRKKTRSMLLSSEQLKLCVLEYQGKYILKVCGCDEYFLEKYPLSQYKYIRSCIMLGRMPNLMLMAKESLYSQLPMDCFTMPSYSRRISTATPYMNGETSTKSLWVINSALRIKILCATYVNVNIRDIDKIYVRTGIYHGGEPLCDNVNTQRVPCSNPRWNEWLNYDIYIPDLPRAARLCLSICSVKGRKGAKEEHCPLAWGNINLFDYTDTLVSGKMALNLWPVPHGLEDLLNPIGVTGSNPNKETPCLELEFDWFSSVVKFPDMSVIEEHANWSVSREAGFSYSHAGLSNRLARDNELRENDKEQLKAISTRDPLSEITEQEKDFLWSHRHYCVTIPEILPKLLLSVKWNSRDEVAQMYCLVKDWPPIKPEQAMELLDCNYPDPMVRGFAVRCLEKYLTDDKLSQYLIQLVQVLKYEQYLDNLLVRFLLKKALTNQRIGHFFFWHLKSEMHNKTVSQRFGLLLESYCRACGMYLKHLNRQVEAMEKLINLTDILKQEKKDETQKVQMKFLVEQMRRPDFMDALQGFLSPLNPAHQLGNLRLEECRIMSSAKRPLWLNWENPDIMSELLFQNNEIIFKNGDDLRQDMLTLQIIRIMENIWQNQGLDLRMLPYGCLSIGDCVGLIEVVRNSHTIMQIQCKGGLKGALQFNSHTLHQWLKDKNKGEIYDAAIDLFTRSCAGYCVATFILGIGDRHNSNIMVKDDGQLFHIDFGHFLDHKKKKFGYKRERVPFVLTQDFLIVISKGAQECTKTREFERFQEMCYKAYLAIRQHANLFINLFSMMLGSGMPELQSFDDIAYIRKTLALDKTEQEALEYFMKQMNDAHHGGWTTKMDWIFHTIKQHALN
PI3Ka, sequence (P27986 whole entry partner): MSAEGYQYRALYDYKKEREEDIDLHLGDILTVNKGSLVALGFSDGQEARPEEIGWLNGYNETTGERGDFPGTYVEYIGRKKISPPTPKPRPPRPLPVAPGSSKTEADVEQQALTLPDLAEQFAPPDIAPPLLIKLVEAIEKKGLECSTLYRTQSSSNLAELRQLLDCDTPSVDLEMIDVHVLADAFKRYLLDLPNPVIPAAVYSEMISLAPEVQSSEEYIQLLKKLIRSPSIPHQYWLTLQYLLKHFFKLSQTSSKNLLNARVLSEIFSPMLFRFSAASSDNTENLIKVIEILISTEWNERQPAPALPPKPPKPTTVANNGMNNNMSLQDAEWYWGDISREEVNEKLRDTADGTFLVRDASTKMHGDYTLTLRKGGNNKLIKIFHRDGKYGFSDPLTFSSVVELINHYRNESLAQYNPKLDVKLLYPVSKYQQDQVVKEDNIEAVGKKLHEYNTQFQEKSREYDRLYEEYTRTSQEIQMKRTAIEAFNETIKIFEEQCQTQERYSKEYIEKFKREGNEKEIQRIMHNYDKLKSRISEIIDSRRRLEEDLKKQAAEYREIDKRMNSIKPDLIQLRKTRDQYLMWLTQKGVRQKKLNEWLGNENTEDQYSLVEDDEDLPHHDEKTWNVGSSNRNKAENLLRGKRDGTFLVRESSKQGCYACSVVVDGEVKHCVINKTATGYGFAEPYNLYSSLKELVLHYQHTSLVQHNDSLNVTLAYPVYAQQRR
Procedure: Use the PI3Ka Scintillation Proximity Assay (PI3Ka SPA) to determine compound IC50 values against PI3Ka kinase. This assay assesses the activity PI3Ka in the presence of compound inhibitors by measuring incorporation of γ-P^33-ATP into phosphatidylinositol (4,5)bisphosphate (PIP2). Perform the kinase reactions in 40 μL reaction volumes in 96-well half-area flat bottom white with clear bottom polystyrene plates. Add PI3Ka to start the reaction. Final reaction conditions are 43.75 mM 2,2-bis(hydroxymethyl)-2,2′,2″-nitrilotriethanol (Bis-Tris) pH 7.0, 306 mM sodium chloride (NaCl), 1.76 mM polyethylene glycol octylphenyl ether (Triton® X-100), 10 μM adenosine triphosphate (ATP), 2.9 mM magnesium chloride (MgCl2) and 1 μCi per well γ-P^33-adenosine triphosphate (γ-P^33-ATP), 5.0 nM PI3Ka human recombinant enzyme, 0.2 mM palmitoyl-oleoyl phosphatidylserine (POPS), 0.04 mM phosphatidylinositol (4,5)bisphosphate (PIP2), 4% DMSO and serial dilutions of compound (diluted 1:3 from 20,000 to 1 nM). Incubate at RT for 90 min after adding PI3Ka. Stop the reaction with the addition of 40 μL of a stopping buffer containing 2.5 mg/mL neomycin linked beads (Amersham, Cat# RPNQ0506) and 21 mM ethylenediaminetetraacetic acid (EDTA). Centrifuge plates for 30 min at 1000 revolutions per minute (RPM) and count radioactivity with a Wallac Microbeta Trilux normalized for P^33. […]

PI3Kb, sequence (P42338 whole entry): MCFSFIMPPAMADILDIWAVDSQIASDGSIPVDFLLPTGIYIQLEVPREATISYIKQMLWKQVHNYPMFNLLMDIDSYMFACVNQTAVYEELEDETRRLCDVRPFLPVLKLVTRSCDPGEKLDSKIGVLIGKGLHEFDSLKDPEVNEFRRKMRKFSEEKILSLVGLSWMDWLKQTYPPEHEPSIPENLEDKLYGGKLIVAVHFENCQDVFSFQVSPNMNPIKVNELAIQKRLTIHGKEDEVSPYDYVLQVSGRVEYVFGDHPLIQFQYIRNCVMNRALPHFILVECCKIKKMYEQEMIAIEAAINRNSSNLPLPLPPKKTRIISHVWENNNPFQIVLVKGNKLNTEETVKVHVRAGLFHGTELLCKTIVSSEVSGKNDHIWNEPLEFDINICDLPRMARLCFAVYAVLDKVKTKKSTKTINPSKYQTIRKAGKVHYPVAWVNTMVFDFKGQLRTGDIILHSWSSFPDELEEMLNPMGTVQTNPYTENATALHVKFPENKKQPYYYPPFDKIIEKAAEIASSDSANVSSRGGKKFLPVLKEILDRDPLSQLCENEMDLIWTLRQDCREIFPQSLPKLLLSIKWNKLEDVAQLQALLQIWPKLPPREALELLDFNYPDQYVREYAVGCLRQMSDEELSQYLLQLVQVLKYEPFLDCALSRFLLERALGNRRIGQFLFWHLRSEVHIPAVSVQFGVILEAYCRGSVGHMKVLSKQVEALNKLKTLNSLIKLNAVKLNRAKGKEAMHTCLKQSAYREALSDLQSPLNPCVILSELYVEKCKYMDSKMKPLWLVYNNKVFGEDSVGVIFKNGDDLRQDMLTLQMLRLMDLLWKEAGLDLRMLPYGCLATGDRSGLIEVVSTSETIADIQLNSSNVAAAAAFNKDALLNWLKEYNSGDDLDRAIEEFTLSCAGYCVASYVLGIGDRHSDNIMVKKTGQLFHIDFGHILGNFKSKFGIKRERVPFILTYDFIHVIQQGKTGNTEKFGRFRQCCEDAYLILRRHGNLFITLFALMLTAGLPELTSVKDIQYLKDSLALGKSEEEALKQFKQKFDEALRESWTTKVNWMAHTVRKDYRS
PI3Kb, sequence (P27986 whole entry partner): as the sequence (P27986 whole entry partner) above

IC50 (PI3Kb): 77.6 nM
IC50 [1]: 56 nM
IC50 [2]: 208 nM
IC50 [3]: 3 nM
IC50 [4]: > 200 nM
IC50 [5]: 237 nM
IC50 [6]: 95 nM
IC50 [7]: 184 nM
IC50 [8]: 176 nM
IC50 (PI3Ka): 6.07 nM
Compound: CO[C@@H](C)Cn1c(=O)n(C)c2cnc3ccc(-c4cncc(C(C)(C)O)c4)cc3c21 [Example 1, 8-[5-(1-Hydroxy-1-methylethyl)pyridin-3-yl]-1-[(2S)-2-methoxypropyl]-3-methyl-1,3-dihydro-2H-imidazo[4,5-c]quinolin-2-one]
